Results reported in PubChem BioAssay (NCI).
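Five compound concentrations were applied to cells in 96-well plates for 48 hours; endpoints were derived by simple linear interpolation of the resulting dose-response curve. The concentration for full growth arrest is given as TGI.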

Columns and labels:
Test in all cases: inhibition of tumour cell growth, NCI panel, 48 h
DU-145 prostate = tested on: DU-145 prostate
SF-295 CNS = tested on: SF-295 CNS
MDA-N = tested on: MDA-N
HT29 colon = tested on: HT29 colon
UACC-62 melanoma = tested on: UACC-62 melanoma
A498 renal = tested on: A498 renal
UACC-257 melanoma = tested on: UACC-257 melanoma
SK-MEL-5 melanoma = tested on: SK-MEL-5 melanoma
RXF 393 renal = tested on: RXF 393 renal
SNB-19 CNS = tested on: SNB-19 CNS
K-562 leukemia = tested on: K-562 leukemia
HOP-62 NSCLC = tested on: HOP-62 NSCLC
HCT-116 colon = tested on: HCT-116 colon
SNB-75 CNS = tested on: SNB-75 CNS
CAKI-1 renal = tested on: CAKI-1 renal
MALME-3M melanoma = tested on: MALME-3M melanoma
OVCAR-3 ovarian = tested on: OVCAR-3 ovarian
SK-OV-3 ovarian = tested on: SK-OV-3 ovarian
786-0 renal = tested on: 786-0 renal
A549 NSCLC = tested on: A549 NSCLC
COLO 205 colon = tested on: COLO 205 colon
ACHN renal = tested on: ACHN renal
SF-268 CNS = tested on: SF-268 CNS
IGROV1 ovarian = tested on: IGROV1 ovarian
MDA-MB-231 breast = tested on: MDA-MB-231 breast
OVCAR-5 ovarian = tested on: OVCAR-5 ovarian
EKVX NSCLC = tested on: EKVX NSCLC
T-47D breast = tested on: T-47D breast
PC-3 prostate = tested on: PC-3 prostate
RPMI-8226 leukemia = tested on: RPMI-8226 leukemia
NCI-H460 lung = tested on: NCI-H460 lung
HOP-92 NSCLC = tested on: HOP-92 NSCLC
MDA-MB-435 = tested on: MDA-MB-435
U251 CNS = tested on: U251 CNS
OVCAR-4 ovarian = tested on: OVCAR-4 ovarian
NCI-H23 lung = tested on: NCI-H23 lung
HS 578T breast = tested on: HS 578T breast
SK-MEL-2 melanoma = tested on: SK-MEL-2 melanoma
NCI-H226 lung = tested on: NCI-H226 lung
OVCAR-8 ovarian = tested on: OVCAR-8 ovarian
NCI-H522 lung = tested on: NCI-H522 lung
BT-549 breast = tested on: BT-549 breast
KM12 colon = tested on: KM12 colon
LOX IMVI melanoma = tested on: LOX IMVI melanoma
UO-31 renal = tested on: UO-31 renal
M14 melanoma = tested on: M14 melanoma
NCI/ADR-RES ovarian = tested on: NCI/ADR-RES ovarian
SF-539 CNS = tested on: SF-539 CNS
MCF7 breast = tested on: MCF7 breast
HCT-15 colon = tested on: HCT-15 colon
SW-620 colon = tested on: SW-620 colon
SK-MEL-28 melanoma = tested on: SK-MEL-28 melanoma
TK-10 renal = tested on: TK-10 renal
SR leukemia = tested on: SR leukemia
SN12C renal = tested on: SN12C renal
MOLT-4 leukemia = tested on: MOLT-4 leukemia
HL-60(TB) leukemia = tested on: HL-60(TB) leukemia
CCRF-CEM leukemia = tested on: CCRF-CEM leukemia
HCC-2998 colon = tested on: HCC-2998 colon

Measured: TGI

CN1CCN(c2ccncc2S(=O)(=O)N2CCN(C)CC2)CC1
> 100 µM: DU-145 prostate | SF-295 CNS | MDA-N | HT29 colon | UACC-62 melanoma | A498 renal | UACC-257 melanoma | SK-MEL-5 melanoma | RXF 393 renal | SNB-19 CNS | K-562 leukemia | HOP-62 NSCLC | HCT-116 colon | SNB-75 CNS | CAKI-1 renal | MALME-3M melanoma | OVCAR-3 ovarian | SK-OV-3 ovarian | 786-0 renal | A549 NSCLC | COLO 205 colon | ACHN renal | SF-268 CNS | IGROV1 ovarian | MDA-MB-231 breast | OVCAR-5 ovarian | EKVX NSCLC | T-47D breast | PC-3 prostate | RPMI-8226 leukemia | NCI-H460 lung | HOP-92 NSCLC | MDA-MB-435 | U251 CNS | OVCAR-4 ovarian | NCI-H23 lung | HS 578T breast | SK-MEL-2 melanoma | NCI-H226 lung | OVCAR-8 ovarian | NCI-H522 lung | BT-549 breast | KM12 colon | LOX IMVI melanoma | UO-31 renal | M14 melanoma | NCI/ADR-RES ovarian | SF-539 CNS | MCF7 breast | HCT-15 colon | SW-620 colon | SK-MEL-28 melanoma | TK-10 renal

CCOC(=O)C(=CNc1ccc(S(N)(=O)=O)cc1)C(=O)OCC
> 100 µM: DU-145 prostate | SF-295 CNS | MDA-N | HT29 colon | A498 renal | UACC-257 melanoma | SK-MEL-5 melanoma | RXF 393 renal | SNB-19 CNS | K-562 leukemia | HOP-62 NSCLC | HCT-116 colon | SNB-75 CNS | CAKI-1 renal | MALME-3M melanoma | SR leukemia | OVCAR-3 ovarian | SK-OV-3 ovarian | 786-0 renal | SN12C renal | A549 NSCLC | COLO 205 colon | ACHN renal | SF-268 CNS | MOLT-4 leukemia | HL-60(TB) leukemia | IGROV1 ovarian | MDA-MB-231 breast | OVCAR-5 ovarian | EKVX NSCLC | T-47D breast | CCRF-CEM leukemia | PC-3 prostate | RPMI-8226 leukemia | NCI-H460 lung | HOP-92 NSCLC | MDA-MB-435 | U251 CNS | OVCAR-4 ovarian | NCI-H23 lung | HS 578T breast | SK-MEL-2 melanoma | NCI-H226 lung | OVCAR-8 ovarian | NCI-H522 lung | HCC-2998 colon | LOX IMVI melanoma | UO-31 renal | M14 melanoma | NCI/ADR-RES ovarian | SF-539 CNS | MCF7 breast | HCT-15 colon | SW-620 colon | SK-MEL-28 melanoma | TK-10 renal
